Common to all, as to assay: NCI-60 cell line screen, 48 h
In test [1] the test system is SK-MEL-5 melanoma.
The test system of test [2] is TK-10 renal.
The test system of test [3] is CCRF-CEM leukemia.
The test system of test [4] is SK-MEL-28 melanoma.
Test [5] relates to M14 melanoma.
For test [6], the system named is A549 NSCLC.
Test [7] concerns SK-MEL-2 melanoma.
The subject of test [8] is NCI-H23 lung.
The test system of test [9] is SNB-75 CNS.

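Briefly, cells in 96-well plates were exposed to five compound concentrations for 48 h, and endpoints were estimated by linear interpolation. GI50 marks 50% less growth. TGI: total growth inhibition.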

Take `C/C(CCc1ccccc1)=N\NC(N)=S`: the TGI in [1], in [2], in [3], in [4], in test [5] and in [6] was over 100 µM each time. Moreover, the TGI in [7], in [8] and in [9] was over 100 µM in each case.

For `CCOC(=O)c1cc(/C=C/C(C)=C/C(=O)OC)oc1C`, the TGI in [2], in [3], in test [4], in [5], in test [6] and in test [7] was over 100 µM throughout. Moreover, the TGI in test [8] and in test [9] was over 100 µM throughout.

In the case of `COC(=O)c1ccccc1NC(=O)C(=O)NNC(=O)c1ccncc1`, the TGI in test [1], in test [2], in test [3], in test [4], in test [5] and in [6] was over 100 µM throughout. Moreover, the TGI in test [8] and in [9] was over 100 µM throughout.

As to `C[C@]12CCCC(=O)C1(O)C[C@H](C(=O)O)CC2` (some centres undefined), the TGI in [1], in test [2], in test [3], in test [4], in test [5] and in test [6] was over 100 µM each time. Besides, the TGI in [7], in test [8] and in [9] was over 100 µM in each case.

For the molecule `CCOC(=O)/C=C1\CCCC12OCCO2`, the TGI in [1], in test [2], in [3], in test [4], in test [5] and in test [6] was over 100 µM in each case. Also, the TGI in [7] and in test [9] was over 100 µM each time.

For `CC[O-].CC[O-].O=S(=O)([O-])c1ccc([O-])c2ncccc12.O=S(=O)([O-])c1ccc([O-])c2ncccc12.[Ti+4]`, the GI50 in test [1] was over 100 µM; in test [2] it was over 100 µM; in test [3], 53.3 µM; in [4], over 100 µM; in [5], 63.8 µM; in [6], 39.1 µM. The values for the GI50 in test [7], in [8] and in test [9] were over 100 µM, over 100 µM and 72.8 µM, respectively. The TGI in test [1], in test [2], in [3], in test [4], in test [5] and in test [6] was over 100 µM in each case. Moreover, the TGI in [7], in [8] and in test [9] was over 100 µM throughout.

On to `COC1OC(CO)C(O)C1N` (centres undefined), for which the TGI in test [1], in [2], in test [3], in test [4], in test [5] and in [6] was over 100 µM throughout. Moreover, the TGI in test [8] and in test [9] was over 100 µM each time.

For `CCOP(=O)(OCC)OC(C#N)c1ccc(-c2ccccc2)cc1` (centres undefined), the TGI is 31.8 µM in [1]; 89.2 µM in test [2]; 49.7 µM in [3]; over 100 µM in [4]; 33.3 µM in test [5]; 34.9 µM in test [6]. Further, the TGI in test [7] is over 100 µM; in [8], over 100 µM; in test [9] it was 64.6 µM.

As to `Cc1ccccc1C1=C(C(=O)Nc2ccc(Cl)c(Cl)c2)NC(=S)NC1N` (centres undefined), the TGI in test [1], in test [2], in [3], in [4], in [5] and in test [6] was over 100 µM throughout. Moreover, the TGI in [7], in [8] and in test [9] was over 100 µM in each case.

As to `CN(C)CC1CCC/C1=N\O` (centres undefined), the TGI in test [1], in [2], in test [3], in [4], in [5] and in test [7] was over 100 µM in each case. The TGI in test [8] and in test [9] was over 100 µM each time.

Consider `Cc1ccc(-c2cc(-c3ccco3)c(C#N)c(=O)n2C2OC(OC(=O)c3ccccc3)C(OC(=O)c3ccccc3)C2OC(=O)c2ccccc2)cc1` (centres undefined), for which the TGI in test [2], in [3], in test [4], in test [5], in test [6] and in test [7] was over 100 µM throughout. The same molecule displayed a TGI in [9] of over 100 µM.

Take `C/C(=N\N(c1ccccc1)c1ccccc1)c1c(O)cc(C)oc1=O`: the TGI in [2], in test [3], in [4], in test [5], in test [6] and in test [7] was over 100 µM throughout. The TGI in [8] and in test [9] was over 100 µM each time.

Take `COC(=O)C(CC(=O)Nc1ccc(C)cc1)C(=O)C(=O)Nc1ccccc1C(C)C` (centres undefined): the TGI in test [1], in test [2], in test [3], in [4], in test [5] and in [6] was over 100 µM throughout. The TGI in test [7], in test [8] and in [9] was over 100 µM each time.

Consider `CC(=O)OCC(OC(C)=O)C(OC(C)=O)C(OC(C)=O)C(=O)CNn1c(-c2ccccc2Cl)nc2ccccc2c1=O` (centres undefined), for which the TGI in test [1], in test [3], in test [4], in test [5], in test [6] and in test [7] was over 100 µM in each case. Also, the TGI in test [8] and in test [9] was over 100 µM throughout.

Consider `Cc1cccc(C)c1NC(=O)C1C(=O)N(c2c(C)cccc2C)C(=O)/C1=N\NC(N)=S` (centres undefined), for which the TGI in [1], in test [2], in [3], in test [4], in [5] and in test [6] was over 100 µM each time. Further, the TGI in [7] and in [8] was over 100 µM each time.

For the molecule `Cc1cc(C)c(C(=O)c2no[n+]([O-])c2C(=O)c2c(C)cc(C)c(Br)c2C)c(C)c1Br`, the TGI came to 26.5 µM in test [2]; 8.88 µM in [3]; 27.5 µM in test [4]; 25.1 µM in test [5]; 39.1 µM in [6]; 30.9 µM in test [7]. The TGI came out at 24.3 µM in test [8] and 25.8 µM in test [9].

As to `OC1(c2ccccc2)OC(C#Cc2ccccc2)(c2ccccc2)c2ccccc21` (centres undefined), the TGI was 20.2 µM in [1]; 26.2 µM in [2]; over 100 µM in test [3]; 3.97 µM in [5]; 14.8 µM in [6]; 11.3 µM in [8]. This molecule came in with a TGI in [9] of 20.4 µM.

As for `C/C=C/C=C/C=C/C=C/C(=O)O`, the TGI in [1], in test [3], in test [4], in test [5], in test [6] and in test [7] was over 100 µM throughout. The TGI in [8] and in test [9] was over 100 µM throughout.

As for `Cc1ccc(-c2cc(-c3ccccc3)c(C#N)c(=O)n2C2OC(CO)C(O)C(O)C2O)cc1` (centres undefined), the TGI in test [1], in test [2], in [3], in test [4], in [5] and in test [6] was over 100 µM in each case. In test [8], this molecule gave a TGI of over 100 µM.

`O=[N+]([O-])c1cnn(C2=CNc3ccccc3N=C2)c1`: the TGI in test [2], in test [3], in test [4], in test [6], in [7] and in test [8] was over 100 µM throughout. This molecule also registered a TGI in test [9] of over 100 µM.

In the case of `CCC1=NC(CO)[C@H](c2ccccc2)O1` (some centres undefined), the TGI in test [1], in [2], in test [4], in [6], in test [7] and in [8] was over 100 µM in each case. Also, the TGI in test [9] was over 100 µM.

With `COC1C2C=CC(C2)[C@H]1[N+](=O)[O-]` (some centres undefined), the TGI in test [1], in [2], in [3], in [5], in [6] and in test [7] was over 100 µM each time. The TGI in [8] and in [9] was over 100 µM throughout.

`Cc1cccc(-n2c(=S)[nH]c3c(sc(=O)n3-c3ccccc3C)c2=O)c1`: the TGI in test [1], in test [3], in test [4], in test [5], in [6] and in test [7] was over 100 µM throughout. Besides, the TGI in [8] and in test [9] was over 100 µM each time.

For the origin of these results see PubChem BioAssay (NCI).
